Source: ChEMBL document CHEMBL1201862, “PubChem BioAssay data set” (2004)
Active and inactive are the calls of the source.

What was measured:
Format in all cases: functional
[1] = molecular target: Mitogen-activated protein kinase 9 (Homo sapiens, UniProt P45984);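 also: value from a kinome panel profiling assay, MAPK9 panel entry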
[2] = molecular target: Vascular endothelial growth factor receptor 2 (Homo sapiens, UniProt P35968)
[3] = molecular target: Hepatocyte growth factor receptor (Homo sapiens, UniProt P08581);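 also: kinase panel profiling across the kinome, with MET as the panel member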
[4] = molecular target: Macrophage colony-stimulating factor 1 receptor (Homo sapiens, UniProt P07333);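 also: value comes from the Navigating the Kinome screening panel, CSF1R member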
[5] = molecular target: Vascular endothelial growth factor receptor 1 (Homo sapiens, UniProt P17948);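 also: measured within a kinome-wide profiling panel, FLT1 as the panel member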
Sequence of Vascular endothelial growth factor receptor 1 (P17948 whole entry): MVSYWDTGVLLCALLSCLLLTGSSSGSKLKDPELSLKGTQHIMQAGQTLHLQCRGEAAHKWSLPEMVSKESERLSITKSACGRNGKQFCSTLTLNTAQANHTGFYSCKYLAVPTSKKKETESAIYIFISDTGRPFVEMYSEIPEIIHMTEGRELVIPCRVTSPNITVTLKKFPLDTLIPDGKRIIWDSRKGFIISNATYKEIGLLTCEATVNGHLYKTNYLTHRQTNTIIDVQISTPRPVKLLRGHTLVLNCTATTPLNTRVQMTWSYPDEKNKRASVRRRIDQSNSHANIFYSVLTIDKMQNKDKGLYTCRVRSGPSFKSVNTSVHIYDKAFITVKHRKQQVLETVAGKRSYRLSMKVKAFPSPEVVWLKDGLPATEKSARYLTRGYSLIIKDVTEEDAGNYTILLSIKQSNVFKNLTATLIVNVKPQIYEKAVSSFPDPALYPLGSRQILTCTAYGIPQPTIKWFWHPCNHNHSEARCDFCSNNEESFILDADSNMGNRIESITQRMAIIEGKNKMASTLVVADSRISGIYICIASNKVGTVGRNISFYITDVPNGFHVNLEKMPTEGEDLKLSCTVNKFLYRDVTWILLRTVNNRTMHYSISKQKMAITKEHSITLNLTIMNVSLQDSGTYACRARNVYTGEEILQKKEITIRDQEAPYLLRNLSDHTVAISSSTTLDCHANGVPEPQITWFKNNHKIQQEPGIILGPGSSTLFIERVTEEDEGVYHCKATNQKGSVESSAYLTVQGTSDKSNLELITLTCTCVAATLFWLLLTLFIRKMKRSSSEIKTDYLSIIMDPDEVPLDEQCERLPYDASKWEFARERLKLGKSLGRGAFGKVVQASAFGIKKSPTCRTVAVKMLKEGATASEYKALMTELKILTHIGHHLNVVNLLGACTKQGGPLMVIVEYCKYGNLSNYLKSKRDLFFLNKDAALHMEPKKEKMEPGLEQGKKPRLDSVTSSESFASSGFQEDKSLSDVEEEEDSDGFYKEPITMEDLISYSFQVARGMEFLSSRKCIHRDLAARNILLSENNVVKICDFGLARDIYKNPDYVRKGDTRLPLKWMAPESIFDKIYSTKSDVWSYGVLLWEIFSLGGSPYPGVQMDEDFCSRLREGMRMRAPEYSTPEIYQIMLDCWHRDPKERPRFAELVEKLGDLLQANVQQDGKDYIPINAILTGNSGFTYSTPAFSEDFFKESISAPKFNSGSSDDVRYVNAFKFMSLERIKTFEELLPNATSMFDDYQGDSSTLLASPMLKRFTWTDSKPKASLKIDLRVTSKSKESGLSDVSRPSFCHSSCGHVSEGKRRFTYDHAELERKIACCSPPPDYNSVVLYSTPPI

[6] = molecular target: 5'-AMP-activated protein kinase catalytic subunit alpha-1 (Homo sapiens, UniProt Q13131)
Sequence of 5'-AMP-activated protein kinase catalytic subunit alpha-1 (Q13131 whole entry): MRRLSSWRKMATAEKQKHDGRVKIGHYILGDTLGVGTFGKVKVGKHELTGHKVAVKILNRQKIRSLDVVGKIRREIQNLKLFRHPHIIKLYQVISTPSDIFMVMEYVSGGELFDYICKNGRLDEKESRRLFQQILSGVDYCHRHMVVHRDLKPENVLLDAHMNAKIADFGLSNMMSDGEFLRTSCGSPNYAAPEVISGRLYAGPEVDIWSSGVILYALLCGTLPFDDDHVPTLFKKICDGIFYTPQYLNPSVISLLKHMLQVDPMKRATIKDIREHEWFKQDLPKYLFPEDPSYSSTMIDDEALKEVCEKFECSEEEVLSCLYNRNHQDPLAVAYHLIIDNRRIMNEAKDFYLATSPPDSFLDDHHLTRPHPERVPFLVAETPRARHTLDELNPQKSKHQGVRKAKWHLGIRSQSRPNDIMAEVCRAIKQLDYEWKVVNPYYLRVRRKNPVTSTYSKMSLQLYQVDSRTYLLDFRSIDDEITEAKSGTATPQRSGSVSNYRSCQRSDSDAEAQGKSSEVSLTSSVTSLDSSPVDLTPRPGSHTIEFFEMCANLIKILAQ

[7] = molecular target: BDNF/NT-3 growth factors receptor (Homo sapiens, UniProt Q16620);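 also: NTRK2 measured as one member of a broad kinome-wide kinase profiling panel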
Sequence of BDNF/NT-3 growth factors receptor (Q16620 whole entry): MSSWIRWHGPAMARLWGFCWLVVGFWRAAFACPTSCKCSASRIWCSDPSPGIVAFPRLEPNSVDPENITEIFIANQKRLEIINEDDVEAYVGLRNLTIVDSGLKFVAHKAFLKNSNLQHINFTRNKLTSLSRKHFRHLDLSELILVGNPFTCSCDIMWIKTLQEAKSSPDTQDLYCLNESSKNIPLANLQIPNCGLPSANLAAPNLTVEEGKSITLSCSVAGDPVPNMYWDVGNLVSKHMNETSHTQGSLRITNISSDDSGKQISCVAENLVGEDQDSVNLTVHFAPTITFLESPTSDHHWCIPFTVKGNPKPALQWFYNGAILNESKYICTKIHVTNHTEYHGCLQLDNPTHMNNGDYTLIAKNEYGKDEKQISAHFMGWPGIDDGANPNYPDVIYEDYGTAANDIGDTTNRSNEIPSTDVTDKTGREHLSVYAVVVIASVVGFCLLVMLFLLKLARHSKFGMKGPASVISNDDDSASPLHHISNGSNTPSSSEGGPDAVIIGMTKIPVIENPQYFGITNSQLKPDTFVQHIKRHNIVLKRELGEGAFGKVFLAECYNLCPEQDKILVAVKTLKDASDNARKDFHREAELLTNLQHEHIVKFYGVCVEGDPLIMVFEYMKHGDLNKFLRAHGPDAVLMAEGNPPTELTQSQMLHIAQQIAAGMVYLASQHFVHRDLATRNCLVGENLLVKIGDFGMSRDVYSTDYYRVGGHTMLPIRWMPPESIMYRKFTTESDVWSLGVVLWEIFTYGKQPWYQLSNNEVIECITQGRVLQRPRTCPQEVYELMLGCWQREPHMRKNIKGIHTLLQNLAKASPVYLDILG

[8] = molecular target: cAMP-dependent protein kinase catalytic subunit alpha (Homo sapiens, UniProt P17612)
[9] = molecular target: Serine/threonine-protein kinase D3 (Homo sapiens, UniProt O94806);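 also: determined within a kinase panel screen, with PRKCN as the panel member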
[10] = molecular target: T1, Sentrin-specific protease 6 (Homo sapiens, UniProt Q9GZR1);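 also: Luminescence-based dose-response confirmatory assay of SENP6 inhibition, following up an ultra-high-throughput screen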
T1 sequence (Q9GZR1 whole entry): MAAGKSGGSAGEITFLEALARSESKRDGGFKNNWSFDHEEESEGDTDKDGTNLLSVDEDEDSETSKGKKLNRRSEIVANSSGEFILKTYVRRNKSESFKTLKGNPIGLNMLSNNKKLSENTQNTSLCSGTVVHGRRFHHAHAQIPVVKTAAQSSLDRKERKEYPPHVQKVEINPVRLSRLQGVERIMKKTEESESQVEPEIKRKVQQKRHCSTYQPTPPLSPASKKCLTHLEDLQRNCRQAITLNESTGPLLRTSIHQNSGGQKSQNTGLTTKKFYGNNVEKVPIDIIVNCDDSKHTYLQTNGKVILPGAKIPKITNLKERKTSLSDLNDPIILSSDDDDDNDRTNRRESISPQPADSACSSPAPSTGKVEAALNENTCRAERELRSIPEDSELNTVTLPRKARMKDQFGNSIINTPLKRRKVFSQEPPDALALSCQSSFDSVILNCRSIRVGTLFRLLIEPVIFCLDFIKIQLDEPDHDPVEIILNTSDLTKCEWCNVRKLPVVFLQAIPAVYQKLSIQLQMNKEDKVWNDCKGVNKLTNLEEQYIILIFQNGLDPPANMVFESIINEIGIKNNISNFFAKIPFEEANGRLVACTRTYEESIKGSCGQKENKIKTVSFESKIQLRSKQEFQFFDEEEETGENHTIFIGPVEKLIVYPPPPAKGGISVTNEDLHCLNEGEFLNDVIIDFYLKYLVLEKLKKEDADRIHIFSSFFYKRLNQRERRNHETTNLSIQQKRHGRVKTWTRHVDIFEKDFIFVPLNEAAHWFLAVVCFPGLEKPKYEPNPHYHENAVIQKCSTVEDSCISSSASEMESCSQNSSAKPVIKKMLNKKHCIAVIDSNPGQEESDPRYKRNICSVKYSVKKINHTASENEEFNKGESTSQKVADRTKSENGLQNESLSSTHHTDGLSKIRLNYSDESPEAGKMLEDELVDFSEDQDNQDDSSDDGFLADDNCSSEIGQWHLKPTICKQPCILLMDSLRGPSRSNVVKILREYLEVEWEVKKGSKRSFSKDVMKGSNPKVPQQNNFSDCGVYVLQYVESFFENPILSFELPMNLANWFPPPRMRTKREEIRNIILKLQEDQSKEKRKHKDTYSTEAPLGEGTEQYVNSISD

[11] = molecular target: T2, Sentrin-specific protease 7 (Homo sapiens, UniProt Q9BQF6);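 also: Luminescence-based dose-response confirmation of ultra-high-throughput screening hits, measuring inhibition of SENP7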
T2 sequence (Q9BQF6 whole entry): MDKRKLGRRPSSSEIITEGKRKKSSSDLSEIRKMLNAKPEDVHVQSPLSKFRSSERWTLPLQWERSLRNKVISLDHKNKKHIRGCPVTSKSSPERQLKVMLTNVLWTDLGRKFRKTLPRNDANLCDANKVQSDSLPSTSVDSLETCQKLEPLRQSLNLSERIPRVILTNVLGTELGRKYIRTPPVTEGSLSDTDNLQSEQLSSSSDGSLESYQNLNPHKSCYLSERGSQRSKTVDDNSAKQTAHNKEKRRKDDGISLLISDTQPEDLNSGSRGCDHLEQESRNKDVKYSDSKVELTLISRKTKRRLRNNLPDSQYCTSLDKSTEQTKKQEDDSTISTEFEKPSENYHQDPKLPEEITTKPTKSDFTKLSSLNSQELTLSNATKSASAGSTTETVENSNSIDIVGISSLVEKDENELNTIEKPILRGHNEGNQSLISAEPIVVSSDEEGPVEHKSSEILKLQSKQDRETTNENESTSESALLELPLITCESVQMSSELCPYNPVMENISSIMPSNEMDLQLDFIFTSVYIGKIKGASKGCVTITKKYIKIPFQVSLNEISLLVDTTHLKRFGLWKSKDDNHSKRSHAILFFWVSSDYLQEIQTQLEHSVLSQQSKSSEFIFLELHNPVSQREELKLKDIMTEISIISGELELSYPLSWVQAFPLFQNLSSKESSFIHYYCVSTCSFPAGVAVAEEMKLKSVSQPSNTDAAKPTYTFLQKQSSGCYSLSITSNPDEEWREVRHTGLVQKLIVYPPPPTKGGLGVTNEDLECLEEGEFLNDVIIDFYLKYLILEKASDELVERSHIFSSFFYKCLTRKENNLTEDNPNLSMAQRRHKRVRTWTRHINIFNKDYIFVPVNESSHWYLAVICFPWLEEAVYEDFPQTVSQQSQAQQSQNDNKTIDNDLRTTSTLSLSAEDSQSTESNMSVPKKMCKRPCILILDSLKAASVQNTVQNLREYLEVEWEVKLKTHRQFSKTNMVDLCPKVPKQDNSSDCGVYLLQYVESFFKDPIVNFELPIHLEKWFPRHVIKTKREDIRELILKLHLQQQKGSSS

Sequence of Vascular endothelial growth factor receptor 2 (P35968 whole entry): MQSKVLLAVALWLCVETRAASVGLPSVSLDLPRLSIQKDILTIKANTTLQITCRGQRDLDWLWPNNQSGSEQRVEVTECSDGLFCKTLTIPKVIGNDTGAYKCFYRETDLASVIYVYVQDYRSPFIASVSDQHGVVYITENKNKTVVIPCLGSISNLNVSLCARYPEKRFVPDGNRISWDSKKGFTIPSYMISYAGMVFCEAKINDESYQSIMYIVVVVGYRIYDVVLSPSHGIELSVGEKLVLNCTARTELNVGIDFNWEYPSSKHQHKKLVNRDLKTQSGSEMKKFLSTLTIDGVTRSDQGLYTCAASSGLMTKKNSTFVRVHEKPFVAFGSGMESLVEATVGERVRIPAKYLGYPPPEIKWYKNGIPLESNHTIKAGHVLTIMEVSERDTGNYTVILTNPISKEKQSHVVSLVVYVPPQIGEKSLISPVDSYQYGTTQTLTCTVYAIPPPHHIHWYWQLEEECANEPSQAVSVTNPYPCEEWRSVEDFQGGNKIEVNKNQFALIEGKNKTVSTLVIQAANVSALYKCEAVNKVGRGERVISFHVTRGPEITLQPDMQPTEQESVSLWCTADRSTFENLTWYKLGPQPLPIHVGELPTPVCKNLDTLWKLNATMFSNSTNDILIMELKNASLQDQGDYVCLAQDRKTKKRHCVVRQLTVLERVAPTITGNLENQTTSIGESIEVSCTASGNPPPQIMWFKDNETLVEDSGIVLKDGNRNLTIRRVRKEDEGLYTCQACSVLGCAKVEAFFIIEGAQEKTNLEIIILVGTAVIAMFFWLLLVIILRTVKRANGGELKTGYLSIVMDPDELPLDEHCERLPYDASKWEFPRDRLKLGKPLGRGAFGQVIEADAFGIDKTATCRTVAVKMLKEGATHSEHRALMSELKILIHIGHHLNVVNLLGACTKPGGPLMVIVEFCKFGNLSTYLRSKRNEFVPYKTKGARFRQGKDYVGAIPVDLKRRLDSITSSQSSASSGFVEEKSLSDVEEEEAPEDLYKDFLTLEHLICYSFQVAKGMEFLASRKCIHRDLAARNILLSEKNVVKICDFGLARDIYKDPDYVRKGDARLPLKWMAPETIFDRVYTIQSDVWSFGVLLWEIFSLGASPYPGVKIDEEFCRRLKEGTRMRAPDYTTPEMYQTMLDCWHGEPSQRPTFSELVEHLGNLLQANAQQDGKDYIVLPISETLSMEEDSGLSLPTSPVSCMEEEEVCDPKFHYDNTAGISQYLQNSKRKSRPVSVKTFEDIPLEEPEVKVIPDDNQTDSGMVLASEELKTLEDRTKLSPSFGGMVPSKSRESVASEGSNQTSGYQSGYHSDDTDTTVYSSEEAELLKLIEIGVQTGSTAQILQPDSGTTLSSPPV
Sequence of Mitogen-activated protein kinase 9 (P45984 whole entry): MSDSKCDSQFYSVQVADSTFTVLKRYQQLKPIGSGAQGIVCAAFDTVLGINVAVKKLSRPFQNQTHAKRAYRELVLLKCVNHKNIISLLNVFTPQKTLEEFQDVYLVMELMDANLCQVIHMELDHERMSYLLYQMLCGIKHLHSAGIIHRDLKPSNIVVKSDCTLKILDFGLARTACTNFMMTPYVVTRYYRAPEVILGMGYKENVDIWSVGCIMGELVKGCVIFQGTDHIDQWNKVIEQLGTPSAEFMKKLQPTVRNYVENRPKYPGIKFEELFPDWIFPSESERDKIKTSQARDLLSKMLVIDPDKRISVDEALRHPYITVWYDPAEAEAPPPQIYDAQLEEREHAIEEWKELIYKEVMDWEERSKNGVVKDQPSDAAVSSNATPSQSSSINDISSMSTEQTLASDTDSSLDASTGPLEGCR

Row | Structure (SMILES) | Ki [1] | Ki [2] | Ki [3] | Ki [4] | Ki [5] | Ki [6] | Ki [7] | Ki [8] | Ki [9] | IC50 [10] | IC50 [11]
1 | CCn1c(-c2nonc2N)nc2cncc(C(=O)N3CCC(N)C3)c21 (configuration not stated) | > 3980 nM (inactive) | > 2000 nM (inactive) | > 2510 nM (inactive) | > 2510 nM (inactive) | > 3980 nM (inactive) | > 3160 nM (inactive) | > 3980 nM (inactive) | 3.16 nM (active) | 631 nM (active) | – | –
2 | COC(=O)c1ccccc1NC1=C/C(=N\S(=O)(=O)c2cccs2)c2ccccc2C1=O | – | – | – | – | – | – | – | – | – | 1860 nM (active) | 32300 nM (active)
3 | Cc1cc(C)c[n+](C2=C([N-]S(=O)(=O)c3cccs3)C(=O)c3ccccc3C2=O)c1 | – | – | – | – | – | – | – | – | – | 15100 nM (active) | 41200 nM (active)
4 | Cc1[nH]nc2ccc(-c3cncc(OCC(N)Cc4c[nH]c5ccccc45)c3)cc12 (configuration not stated) | 2000 nM (active) | 3980 nM (active) | > 3160 nM (inactive) | > 2510 nM (inactive) | > 398 nM (inactive) | 158 nM (active) | > 5010 nM (inactive) | 5.01 nM (active) | 5.01 nM (active) | – | –
